# Results taken from US6914045B2, “Glycopeptide antibiotics” (Wyeth Holdings Corporation, priority 2001, dated 2005).
# How the values were obtained:
# Assay in all cases: in vitro antibacterial evaluation, MIC by broth dilution
# Type in all cases: cell-based
# Escherichia coli = conditions: 18 hours at 35° C.
# Streptococcus sp. = conditions: broth dilution, 18 hours at 35° C.
# Method in brief: (§1)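 Read-out: the lowest concentration at which the test strain fails to grow. Serial dilutions (64-0.06 μg/mL) in Muller-Hinton II […], 5×10^5 CFU/mL inoculum, NCCLS M7-A2 procedure.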
# Staphylococcus sp. = conditions: broth dilution, 18 hours at 35° C.
# Method in brief: as §1
# Enterococcus sp. = conditions: broth dilution, 18 hours at 35° C.
# Method in brief: as §1
smiles,measurement,setting,value
CC(c1ccccc1)C1NC(=O)CNC(=O)C(CO)NC(=O)C(C(O)C2CNC(=N)N2C2OC(CO)C(O)C(O)C2O)NC(=O)C(C(O)C2CNC(=N)N2)NC(=O)C(Cc2ccc(OC3OC(CO)C(OC4OC5COC6(CCCCCCCCCCCC6)OC5C(O)C4O)C(O)C3O)cc2)NC1=O (stereo not shown) [Example 210],MIC Escherichia coli (ATCC 25922),Escherichia coli,>64 µg/mL
same,MIC Escherichia coli (GC 4559),Escherichia coli,>64 µg/mL
same,MIC Escherichia coli (GC 4560),Escherichia coli,64 µg/mL
same,MIC Streptococcus agalactiae (GC 4564),Streptococcus sp.,0.25 µg/mL
same,MIC Streptococcus pneumoniae (ATCC 6301),Streptococcus sp.,0.25 µg/mL
same,MIC Streptococcus pneumoniae (GC 1894),Streptococcus sp.,<0.06 µg/mL
same,MIC Streptococcus pneumoniae (GC 4565),Streptococcus sp.,<0.06 µg/mL
same,MIC Streptococcus pyogenes (GC 4563),Streptococcus sp.,2 µg/mL
same,MIC Streptococcus pneumoniae (ATCC 6301),"Streptococcus sp.; inoculum 5×10^5 CFU/mL, strain ATCC 6301",0.25 µg/mL
same,MIC Streptococcus pneumoniae (GC 1894),"Streptococcus sp.; inoculum 5×10^5 CFU/mL, strain GC 1894",<0.06 µg/mL
same,MIC Streptococcus pyogenes (GC 4563),"Streptococcus sp.; inoculum 5×10^5 CFU/mL, strain GC 4563",2 µg/mL
same,MIC Streptococcus agalactiae (GC 4564),"Streptococcus sp.; inoculum 5×10^5 CFU/mL, strain GC 4564",0.25 µg/mL
same,MIC Streptococcus pneumoniae (GC 4565),"Streptococcus sp.; inoculum 5×10^5 CFU/mL, strain GC 4565",<0.06 µg/mL
same,MIC Staphylococcus aureus (ATCC 29213),Staphylococcus sp.; strain ATCC 29213,32 µg/mL
same,MIC Staphylococcus aureus (GC 1131),Staphylococcus sp.; strain GC 1131,32 µg/mL
same,MIC Staphylococcus aureus (GC 3051),Staphylococcus sp.; strain GC 3051,32 µg/mL
same,MIC Staphylococcus aureus (GC 3053),Staphylococcus sp.; strain GC 3053,32 µg/mL
same,MIC Staphylococcus aureus (GC 4541),Staphylococcus sp.; strain GC 4541,32 µg/mL
same,MIC Staphylococcus aureus (GC 4542),Staphylococcus sp.; strain GC 4542,32 µg/mL
same,MIC Staphylococcus aureus-SMITH (GC 4543),Staphylococcus sp.; strain GC 4543,32 µg/mL
same,MIC Staphylococcus aureus (GC 4544),Staphylococcus sp.; strain GC 4544,32 µg/mL
same,MIC Staphylococcus aureus (GC 4545),Staphylococcus sp.; strain GC 4545,32 µg/mL
same,MIC Staphylococcus haemolyticus (GC 4546),Staphylococcus sp.; strain GC 4546,32 µg/mL
same,MIC Coagulase Negative Staphylococcus (GC 4547),Staphylococcus sp.; strain GC 4547,32 µg/mL
same,MIC Coagulase Negative Staphylococcus (GC 4548),Staphylococcus sp.; strain GC 4548,32 µg/mL
same,MIC Coagulase Negative Staphylococcus (GC 4549),Staphylococcus sp.; strain GC 4549,8 µg/mL
same,MIC Coagulase Negative Staphylococcus (GC 4551),Staphylococcus sp.; strain GC 4551,32 µg/mL
same,MIC Coagulase Negative Staphylococcus (GC 6257),Staphylococcus sp.; strain GC 6257,32 µg/mL
same,MIC Enterococcus avium (GC 4558),Enterococcus sp.,16 µg/mL
same,MIC Enterococcus faecalis (ATCC 29212),Enterococcus sp.,32 µg/mL
same,MIC Enterococcus faecalis (GC 2242),Enterococcus sp.,16 µg/mL
same,MIC Enterococcus faecalis (GC 2691),Enterococcus sp.,8 µg/mL
same,MIC Enterococcus faecalis (GC 3059),Enterococcus sp.,32 µg/mL
same,MIC Enterococcus faecalis (GC 4552),Enterococcus sp.,32 µg/mL
same,MIC Enterococcus faecalis (GC 4553),Enterococcus sp.,16 µg/mL
same,MIC Enterococcus faecalis (GC 4554),Enterococcus sp.,32 µg/mL
same,MIC Enterococcus faecalis (GC 6189),Enterococcus sp.,16 µg/mL
same,MIC Enterococcus faecium (GC 2243),Enterococcus sp.,32 µg/mL
same,MIC Enterococcus faecium (GC 4556),Enterococcus sp.,32 µg/mL
same,MIC Enterococcus faecium (GC 4557),Enterococcus sp.,32 µg/mL
same,MIC Enterococcus faecalis (ATCC 29212),"Enterococcus sp.; inoculum 5×10^5 CFU/mL, strain ATCC 29212",32 µg/mL
same,MIC Enterococcus faecalis (GC 2242),"Enterococcus sp.; inoculum 5×10^5 CFU/mL, strain GC 2242",16 µg/mL
same,MIC Enterococcus faecium (GC 2243),"Enterococcus sp.; inoculum 5×10^5 CFU/mL, strain GC 2243",32 µg/mL
same,MIC Enterococcus faecalis (GC 2691),"Enterococcus sp.; inoculum 5×10^5 CFU/mL, strain GC 2691",8 µg/mL
same,MIC Enterococcus faecalis (GC 3059),"Enterococcus sp.; inoculum 5×10^5 CFU/mL, strain GC 3059",32 µg/mL
same,MIC Enterococcus faecalis (GC 4552),"Enterococcus sp.; inoculum 5×10^5 CFU/mL, strain GC 4552",32 µg/mL
same,MIC Enterococcus faecalis (GC 4553),"Enterococcus sp.; inoculum 5×10^5 CFU/mL, strain GC 4553",16 µg/mL
same,MIC Enterococcus faecalis (GC 4554),"Enterococcus sp.; inoculum 5×10^5 CFU/mL, strain GC 4554",32 µg/mL
same,MIC Enterococcus faecium (GC 4556),"Enterococcus sp.; inoculum 5×10^5 CFU/mL, strain GC 4556",32 µg/mL
same,MIC Enterococcus faecium (GC 4557),"Enterococcus sp.; inoculum 5×10^5 CFU/mL, strain GC 4557",32 µg/mL
same,MIC Enterococcus avium (GC 4558),"Enterococcus sp.; inoculum 5×10^5 CFU/mL, strain GC 4558",16 µg/mL
same,MIC Enterococcus faecalis (GC 6189),"Enterococcus sp.; inoculum 5×10^5 CFU/mL, strain GC 6189",16 µg/mL
